Experiments:
HER2 WT = biological target: T1, HER2 WT (Homo sapiens, UniProt P04626); assay: Enzymatic assay HER2 WT (method a); assay type: biochemical; conditions: [HER2 WT]=12.5 nM, [ATP]=25 μM, [Peptide 22]=1 μM
T1 construct: purchased ProQinase, Freiburg, Germany ERBB2 0108-0000-1
Procedure, shortened: (§1)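 Initial rates over 0–3600 s, read as substrate-to-product conversion by capillary electrophoresis, were converted to percent inhibition and fitted with a variable-slope curve to give IC50. Conditions: EGFR WT 2 nM with 1 mM ATP; HER2 YVMA 5 nM or HER2 WT 12.5 nM, each with 25 μM ATP. All used 1 μM Peptide 22 in pH 7.5 HEPES/Mn/Mg buffer.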

HER2YVMA = HER2YVMA (Homo sapiens, UniProt P04626, INS775YVMA); assay: Enzymatic assay HER2YVMA (method b); assay type: biochemical; set-up: purchased Viva biotech, Shanghai, China custom purification; conditions: [HER2YVMA]=5 nM, [ATP]=25 μM, [Peptide 22]=1 μM
HER2YVMA, sequence (P04626 with tags, fused parts or gaps INS775YVMA): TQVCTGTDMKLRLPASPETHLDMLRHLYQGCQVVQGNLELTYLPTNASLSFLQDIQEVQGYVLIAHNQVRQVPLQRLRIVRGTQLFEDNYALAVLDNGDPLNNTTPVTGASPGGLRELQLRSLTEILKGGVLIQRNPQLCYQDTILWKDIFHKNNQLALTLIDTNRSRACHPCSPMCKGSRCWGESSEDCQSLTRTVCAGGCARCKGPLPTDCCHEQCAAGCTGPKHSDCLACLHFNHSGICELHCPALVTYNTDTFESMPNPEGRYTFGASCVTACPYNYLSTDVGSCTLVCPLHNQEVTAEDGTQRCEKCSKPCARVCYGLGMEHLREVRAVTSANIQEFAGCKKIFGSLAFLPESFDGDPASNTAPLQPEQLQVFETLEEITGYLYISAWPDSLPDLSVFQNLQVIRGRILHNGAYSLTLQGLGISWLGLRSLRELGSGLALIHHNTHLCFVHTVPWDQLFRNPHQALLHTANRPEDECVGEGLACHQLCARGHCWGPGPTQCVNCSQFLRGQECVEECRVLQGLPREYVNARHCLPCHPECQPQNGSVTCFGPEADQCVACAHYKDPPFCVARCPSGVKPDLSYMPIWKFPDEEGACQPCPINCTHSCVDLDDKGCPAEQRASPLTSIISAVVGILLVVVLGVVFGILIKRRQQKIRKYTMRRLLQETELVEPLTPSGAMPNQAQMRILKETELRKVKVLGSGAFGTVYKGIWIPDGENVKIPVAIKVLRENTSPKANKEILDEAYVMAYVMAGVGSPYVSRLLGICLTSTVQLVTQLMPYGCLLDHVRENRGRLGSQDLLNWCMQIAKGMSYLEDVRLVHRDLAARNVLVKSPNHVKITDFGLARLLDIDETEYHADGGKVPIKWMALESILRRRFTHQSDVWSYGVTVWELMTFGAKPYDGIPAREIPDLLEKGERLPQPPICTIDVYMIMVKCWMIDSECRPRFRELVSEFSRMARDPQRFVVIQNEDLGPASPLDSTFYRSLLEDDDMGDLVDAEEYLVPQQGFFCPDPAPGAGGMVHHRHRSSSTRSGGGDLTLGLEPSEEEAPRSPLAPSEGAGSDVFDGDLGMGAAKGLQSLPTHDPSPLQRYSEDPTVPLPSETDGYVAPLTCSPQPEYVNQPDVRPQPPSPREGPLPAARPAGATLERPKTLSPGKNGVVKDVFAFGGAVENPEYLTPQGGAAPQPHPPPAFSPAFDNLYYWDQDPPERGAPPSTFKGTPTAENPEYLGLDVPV
Procedure, shortened: as §1

[1] = biological target: T2, HER2 wildtype (WT) protein (Homo sapiens, UniProt P04626); assay: HER2 signaling (pHER2 Tyr1248/total HER2 MSD) in BT474 cells; assay type: cell-based; conditions: 1.5 hr compound, 1% FBS
T2 construct: BT474 and N87 cell lines which endogenously overexpress the HER2 wildtype (WT) protein; endogenous in cells; host or cells: BT474, N87
T2 sequence (P04626 23-1255): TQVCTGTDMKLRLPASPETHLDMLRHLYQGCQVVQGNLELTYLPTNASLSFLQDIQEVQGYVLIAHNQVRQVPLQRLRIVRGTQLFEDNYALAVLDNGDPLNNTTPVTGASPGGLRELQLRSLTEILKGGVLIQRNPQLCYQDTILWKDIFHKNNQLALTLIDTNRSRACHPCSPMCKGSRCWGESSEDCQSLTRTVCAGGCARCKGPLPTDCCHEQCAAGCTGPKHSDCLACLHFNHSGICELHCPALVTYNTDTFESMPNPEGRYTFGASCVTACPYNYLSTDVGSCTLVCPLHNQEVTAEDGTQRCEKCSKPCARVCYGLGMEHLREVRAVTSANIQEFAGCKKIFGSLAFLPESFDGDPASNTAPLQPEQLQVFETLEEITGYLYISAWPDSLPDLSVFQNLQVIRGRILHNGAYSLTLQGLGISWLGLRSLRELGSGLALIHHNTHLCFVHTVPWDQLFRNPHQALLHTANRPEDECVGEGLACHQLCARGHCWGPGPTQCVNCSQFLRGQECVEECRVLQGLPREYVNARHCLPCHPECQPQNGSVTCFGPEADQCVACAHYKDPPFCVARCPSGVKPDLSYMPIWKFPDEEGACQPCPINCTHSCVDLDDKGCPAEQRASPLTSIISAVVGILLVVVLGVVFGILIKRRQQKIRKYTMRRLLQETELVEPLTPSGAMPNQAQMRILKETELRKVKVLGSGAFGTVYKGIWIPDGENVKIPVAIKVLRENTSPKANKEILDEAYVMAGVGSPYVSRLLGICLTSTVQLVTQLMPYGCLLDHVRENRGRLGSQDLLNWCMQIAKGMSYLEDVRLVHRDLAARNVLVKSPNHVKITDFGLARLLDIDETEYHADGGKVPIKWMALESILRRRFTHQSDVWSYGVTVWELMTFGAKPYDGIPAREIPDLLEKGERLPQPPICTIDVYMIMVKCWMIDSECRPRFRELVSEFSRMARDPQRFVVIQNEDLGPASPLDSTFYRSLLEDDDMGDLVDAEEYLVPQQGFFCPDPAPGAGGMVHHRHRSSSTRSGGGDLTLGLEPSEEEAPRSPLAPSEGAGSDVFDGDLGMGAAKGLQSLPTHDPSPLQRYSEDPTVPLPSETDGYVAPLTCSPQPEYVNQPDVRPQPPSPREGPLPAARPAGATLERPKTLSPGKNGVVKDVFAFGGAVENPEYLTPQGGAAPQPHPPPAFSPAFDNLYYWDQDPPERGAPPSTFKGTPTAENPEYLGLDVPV
Procedure, shortened: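 BT474, N87 (HER2 WT) and NCI-H1781 (HER2 G776delinsVC) cells were treated for 1.5 h at 37° C in 1% FBS medium with compound at 0.0005–1.1 μM. pHER2 Tyr1248 was measured by MSD on whole-cell lysates and normalized to total HER2 as % DMSO. EC50 came from a variable-slope sigmoidal fit.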

EGFR WT = biological target: T3, EGFR WT (Homo sapiens, UniProt P00533); assay: Enzymatic assay EGFR WT (method c); assay type: biochemical; conditions: [EGFR WT]=2 nM, [ATP]=1 mM, [Peptide 22]=1 μM
T3 construct: purchased Thermo Fisher, Carlsbad, CA ERBB1 PR7295B
T3 sequence (P00533 25-1210): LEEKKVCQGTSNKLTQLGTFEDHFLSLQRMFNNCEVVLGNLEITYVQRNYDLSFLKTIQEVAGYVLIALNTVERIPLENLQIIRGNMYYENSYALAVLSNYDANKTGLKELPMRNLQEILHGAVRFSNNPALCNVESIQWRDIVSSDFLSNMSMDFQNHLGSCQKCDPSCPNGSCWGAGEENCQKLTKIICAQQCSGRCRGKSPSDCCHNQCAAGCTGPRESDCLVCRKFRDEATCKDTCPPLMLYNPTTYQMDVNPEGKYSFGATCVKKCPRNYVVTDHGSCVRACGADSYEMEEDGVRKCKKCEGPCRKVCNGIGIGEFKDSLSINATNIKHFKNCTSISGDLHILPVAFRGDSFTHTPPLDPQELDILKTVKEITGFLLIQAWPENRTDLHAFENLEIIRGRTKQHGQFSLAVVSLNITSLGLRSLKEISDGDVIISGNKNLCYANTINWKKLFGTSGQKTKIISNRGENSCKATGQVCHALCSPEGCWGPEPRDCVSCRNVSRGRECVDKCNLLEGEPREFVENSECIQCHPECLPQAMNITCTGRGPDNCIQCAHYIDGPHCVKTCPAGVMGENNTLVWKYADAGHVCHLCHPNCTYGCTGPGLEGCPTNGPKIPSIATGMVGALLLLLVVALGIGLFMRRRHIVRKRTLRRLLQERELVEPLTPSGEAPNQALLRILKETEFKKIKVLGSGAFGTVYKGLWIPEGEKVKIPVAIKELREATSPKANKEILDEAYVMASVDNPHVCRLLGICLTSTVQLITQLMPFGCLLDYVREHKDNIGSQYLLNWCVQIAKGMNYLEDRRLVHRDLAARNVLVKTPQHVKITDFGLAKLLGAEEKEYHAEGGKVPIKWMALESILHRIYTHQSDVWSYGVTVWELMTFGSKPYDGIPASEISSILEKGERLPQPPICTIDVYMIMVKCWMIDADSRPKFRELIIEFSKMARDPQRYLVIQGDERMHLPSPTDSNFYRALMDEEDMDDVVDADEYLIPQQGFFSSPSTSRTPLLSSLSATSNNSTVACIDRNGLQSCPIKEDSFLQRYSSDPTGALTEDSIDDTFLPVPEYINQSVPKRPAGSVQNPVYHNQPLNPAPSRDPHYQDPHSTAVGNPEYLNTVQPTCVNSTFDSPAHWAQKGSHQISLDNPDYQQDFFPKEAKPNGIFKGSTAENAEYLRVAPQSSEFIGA
Procedure, shortened: as §1

T1 sequence (P04626 23-1255): as the sequence (P04626 23-1255) above

Compound | IC50 (HER2 WT) | IC50 (HER2YVMA) | EC50 [1] | IC50 (EGFR WT)
Cc1ccc(Oc2ccc(Nc3ncnc4sc5c(c34)CCN(C(=O)/C=C/CN3CCC[C@H](n4cccn4)C3)C5)cc2C)cn1 [Compound 112] | < 100 nM | < 100 nM | < 100 nM | > 10000 nM
Cc1ccc(Oc2ccc(Nc3ncnc4sc5c(c34)CCN(C(=O)/C=C/CN3CCCC(c4nccs4)C3)C5)cc2C)cn1 (stereo not drawn) [Compound 113] | < 100 nM | < 100 nM | < 100 nM | > 10000 nM
Cc1ccc(Oc2ccc(Nc3ncnc4sc5c(c34)CCN(C(=O)/C=C/CN3CCC(O)C(C)(C)C3)C5)cc2C)cn1 (stereo not drawn) [Compound 114] | < 100 nM | < 100 nM | < 100 nM | > 10000 nM
Cc1ccc(Oc2ccc(Nc3ncnc4sc5c(c34)CCN(C(=O)/C=C/CN3CCCC34CCC4)C5)cc2C)cn1 [Compound 115] | < 100 nM | < 100 nM | < 100 nM | > 10000 nM
Cc1ccc(Oc2ccc(Nc3ncnc4sc5c(c34)CCN(C(=O)/C=C/CN3CC(C)OC(C)C3C)C5)cc2C)cn1 (stereo not drawn) [Compound 117] | < 100 nM | < 100 nM | < 100 nM | > 10000 nM
Cc1ccc(Oc2ccc(Nc3ncnc4sc5c(c34)CCN(C(=O)/C=C/CN3CC4CC4(CO)C3)C5)cc2C)cn1 (stereo not drawn) [Compound 118] | < 100 nM | < 100 nM | < 100 nM | > 10000 nM
Cc1ccc(Oc2ccc(Nc3ncnc4sc5c(c34)CCN(C(=O)/C=C/CN3CCCCC3(C)CO)C5)cc2C)cn1 (stereo not drawn) [Compound 119] | < 100 nM | < 100 nM | < 100 nM | > 10000 nM
Cc1ccc(Oc2ccc(Nc3ncnc4sc5c(c34)CCN(C(=O)/C=C/CN3C[C@H]4C[C@@H]3CC4C#N)C5)cc2C)cn1 (stereo partly drawn) [Compound 120] | < 100 nM | < 100 nM | < 100 nM | > 10000 nM
Cc1ccc(Oc2ccc(Nc3ncnc4sc5c(c34)CCN(C(=O)/C=C/CN3CC(C)(C)OC(C)(C)C3)C5)cc2C)cn1 [Compound 121] | 1000 to 10000 nM | 100 to 1000 nM | < 100 nM | > 10000 nM
Cc1ccc(Oc2ccc(Nc3ncnc4sc5c(c34)CCN(C(=O)/C=C/CN3CC4(CCCC4)C3)C5)cc2C)cn1 [Compound 123] | < 100 nM | < 100 nM | < 100 nM | > 10000 nM
Cc1cc(Nc2ncnc3sc4c(c23)CCN(C(=O)/C=C/CN(C)C)C4)ccc1Oc1ccn2ccnc2c1 [Compound 126, (E)-4-(dimethylamino)-1-(4-((4-(imidazo[1,2-a]pyridin-7-yloxy)-3-methylphenyl)amino)-5,8-dihydropyrido[4′,3′:4,5]thieno[2,3-d]pyrimidin-7(6H)-yl)but-2-en-1-one] | < 100 nM | < 100 nM | < 100 nM | > 10000 nM
Cc1nc2cc(Oc3ccc(Nc4ncnc5sc6c(c45)CCN(C(=O)/C=C/CN(C)C)C6)cc3C)ccn2n1 [Compound 127, (E)-4-(dimethylamino)-1-(4-((3-methyl-4-((2-methyl-[1,2,4]triazolo[1,5-a]pyridin-7-yl)oxy)phenyl)amino)-5,6-dihydropyrido[4′,3′:4,5]thieno[2,3-d]pyrimidin-7(8H)-yl)but-2-en-1-one] | 100 to 1000 nM | < 100 nM | < 100 nM | > 10000 nM
Cc1ccc(Oc2ccc(Nc3ncnc4sc5c(c34)CCN(C(=O)/C=C/CN3CC[C@@H](CO)C3)C5)cc2C)cn1 [Compound 132] | < 100 nM | < 100 nM | < 100 nM | 1000 to 10000 nM
Cc1ccc(Oc2ccc(Nc3ncnc4sc5c(c34)CCN(C(=O)/C=C/CN3CC[C@H](CO)C3)C5)cc2C)cn1 [Compound 133] | < 100 nM | < 100 nM | < 100 nM | > 10000 nM
Cc1ccc(Oc2ccc(Nc3ncnc4sc5c(c34)CCN(C(=O)/C=C/CN3CC(CO)(CO)C3)C5)cc2C)cn1 [Compound 134] | < 100 nM | < 100 nM | 100 to 350 nM | 1000 to 10000 nM
Cc1ccc(Oc2ccc(Nc3ncnc4sc5c(c34)CCN(C(=O)/C=C/CN3CCC(CO)(CO)CC3)C5)cc2C)cn1 [Compound 135] | < 100 nM | < 100 nM | < 100 nM | > 10000 nM
Cc1ccc(Oc2ccc(Nc3ncnc4sc5c(c34)CCN(C(=O)/C=C/CN3CCO[C@H](CO)C3)C5)cc2C)cn1 [Compound 136] | < 100 nM | < 100 nM | < 100 nM | > 10000 nM
C=CC(=O)N1Cc2sc3ncnc(Nc4ccc(Oc5ccc(C)nc5)c(C)c4)c3c2C(C)C1 (stereo not drawn) [Compound 142, 1-(5-methyl-4-((3-methyl-4-((6-methylpyridin-3-yl)oxy)phenyl)amino)-5,6-dihydropyrido[4′,3′:4,5]thieno[2,3-d]pyrimidin-7(8H)-yl)prop-2-en-1-one] | < 100 nM | < 100 nM | < 100 nM | 1000 to 10000 nM

Second part, the compound after the results:

IC50 (HER2 WT) | IC50 (HER2YVMA) | EC50 [1] | IC50 (EGFR WT) | Compound
< 100 nM | < 100 nM | < 100 nM | > 10000 nM | CC[C@H](NC/C=C/C(=O)N1CCc2c(sc3ncnc(Nc4ccc(Oc5ccc(C)nc5)c(C)c4)c23)C1)C(F)(F)F [Compound 122]
< 100 nM | < 100 nM | < 100 nM | > 10000 nM | Cc1ccc(Oc2ccc(Nc3ncnc4sc5c(c34)CCN(C(=O)/C=C/CN3CC[C@H](F)C3)C5)cc2C)cn1 [Compound 124]
100 to 1000 nM | < 100 nM | < 100 nM | > 10000 nM | COc1ccc(Oc2ccc(Nc3ncnc4sc5c(c34)CN(C(=O)/C=C/CN(C)C)C5)cc2C)cn1 [Compound 128, (E)-4-(dimethylamino)-1-(4-((4-((6-methoxypyridin-3-yl)oxy)-3-methylphenyl)amino)-5,7-dihydro-6H-pyrrolo[3′,4′:4,5]thieno[2,3-d]pyrimidin-6-yl)but-2-en-1-one]
< 100 nM | < 100 nM | < 100 nM | > 10000 nM | Cc1ccc(Oc2ccc(Nc3ncnc4sc5c(c34)CN(C(=O)/C=C/CN(C)C)C5)cc2Cl)cn1 [Compound 129, (E)-1-(4-((3-Chloro-4-((6-methylpyridin-3-yl)oxy)phenyl)amino)-5H-pyrrolo[3′,4′:4,5]thieno[2,3-d]pyrimidin-6(7H)-yl)-4-(dimethylamino)but-2-en-1-one]
< 100 nM | < 100 nM | < 100 nM | > 10000 nM | Cc1cc(Nc2ncnc3sc4c(c23)CN(C(=O)/C=C/CN(C)C)C4)ccc1Oc1ccn2ncnc2c1 [Compound 130, (E)-1-(4-((4-([1,2,4]Triazolo[1,5-a]pyridin-7-yloxy)-3-methylphenyl)amino)-5H-pyrrolo[3′,4′:4,5]thieno[2,3-d]pyrimidin-6(7H)-yl)-4-(dimethylamino)but-2-en-1-one]
< 100 nM | < 100 nM | < 100 nM | 1000 to 10000 nM | CCN(CC)C/C=C/C(=O)N1CCc2c(sc3ncnc(Nc4ccc(Oc5ccc(C)nc5)c(C)c4)c23)C1 [Compound 131]
< 100 nM | < 100 nM | < 100 nM | > 10000 nM | CCN(CC)C/C=C/C(=O)N1CCc2c(sc3ncnc(Nc4ccc(Oc5ccc(OC)nc5)c(C)c4)c23)C1 [Compound 137]
< 100 nM | < 100 nM | < 100 nM | > 10000 nM | Cc1cc(Nc2ncnc3sc4c(c23)CCN(C(=O)/C=C/CN(C)C)C4)ccc1Oc1ccn2ncnc2c1 [Compound 138, (E)-1-(4-((4-([1,2,4]triazolo[1,5-a]pyridin-7-yloxy)-3-methylphenyl)amino)-5,8-dihydropyrido[4′,3′:4,5]thieno[2,3-d]pyrimidin-7(6H)-yl)-4-(dimethylamino)but-2-en-1-one]
< 100 nM | < 100 nM | < 100 nM | > 10000 nM | C#CCOCCN(C)C/C=C/C(=O)N1CCc2c(sc3ncnc(Nc4ccc(Oc5ccc(C)nc5)c(C)c4)c23)C1 [Compound 139]
< 100 nM | < 100 nM | < 100 nM | > 10000 nM | COc1ccc(Oc2ccc(Nc3ncnc4sc5c(c34)CCN(C(=O)/C=C/CN3CC[C@H](CO)C3)C5)cc2C)cn1 [Compound 140]
< 100 nM | < 100 nM | < 100 nM | > 10000 nM | Cc1ccc(Oc2ccc(Nc3ncnc4sc5c(c34)C(C)N(C(=O)/C=C/CN(C)C)C5)cc2C)cn1 (stereo not drawn) [Compound 141, (E)-4-(dimethylamino)-1-(5-methyl-4-((3-methyl-4-((6-methylpyridin-3-yl)oxy)phenyl)amino)-5,7-dihydro-6H-pyrrolo[3′,4′:4,5]thieno[2,3-d]pyrimidin-6-yl)but-2-en-1-one]
< 100 nM | < 100 nM | < 100 nM | 1000 to 10000 nM | COc1ccc(Oc2ccc(Nc3ncnc4sc5c(c34)CCN(C(=O)/C=C/CN3CC[C@@H](CO)C3)C5)cc2C)cn1 [Compound 143]

From patent US20240391931A1 (Bristol-Myers Squibb Company, priority 2021, published 2024)
